Counter-ions that a name gives are not always drawn.
SMILES | melting point [°C]
c1ccc(C(OC2CCN(CCCOc3ccc4ncnn4n3)CC2)c2ccccc2)cc1 (as salt: fumarate) [Example 2A, 6-[3-[4-(Diphenylmethoxy)piperidino]propoxy][1,2,4]triazolo[1,5-b]pyridazine Fumarate] | 157 to 159
CC(C)(C(=O)O)c1cn2nc(NCCCN3CCC(OC(c4ccccc4)c4ccccc4)CC3)ccc2n1.O.O (hydrate or solvate) [Example 135A, 2-[6-[3-[4-(Diphenylmethoxy)piperidino]propylamino]imidazo[1,2-b]pyridazin-2-yl)-2-methylpropionic Acid Dihydrate] | 203 to 205
c1ccc(C(c2ccccc2)N2CCN(CCCNc3ccc4ncnn4n3)CC2)cc1 [Example 5A, 6-[3-[4-(Diphenylmethyl)-1-piperazinyl]propylamino][1,2,4]triazolo[1,5-b]pyridazine] | 139 to 140
c1ccc(C(OC2CCN(CCCNc3ccc4ncnn4n3)CC2)c2ccccc2)cc1 [Example 6A, 6-[3-[4-(Diphenylmethoxy)piperidino]propylamino][1,2,4]triazolo[1,5-b]pyridazine] | 136 to 138
CC(C)c1cc2ncnn2nc1SCCCN1CCN(C(c2ccccc2)c2ccccc2)CC1 [Example 9A, 6-[3-[4-(Diphenylmethyl)-1-piperazinyl]propylthio]-7-isopropyl[1,2,4]triazolo[1,5-b]pyridazine] | 137 to 139
c1ccc(C(OC2CCN(c3ccc4ncnn4n3)CC2)c2ccccc2)cc1 [Example 11A, 6-[4-(Diphenylmethoxy)piperidino][1,2,4]triazolo[1,5-b]pyridazine] | 137 to 139
c1ccc(C(OC2CCN(CCCCNc3ccc4ncnn4n3)CC2)c2ccccc2)cc1 [Example 12A, 6-[4-[4-(Diphenylmethoxy)piperidino]butylamino][1,2,4]triazolo[1,5-b]pyridazine] | 102 to 104
c1ccc(C(OC2CCN(CCNc3ccc4ncnn4n3)CC2)c2ccccc2)cc1 [Example 13A, 6-[2-[4-(Diphenylmethoxy)piperidino]ethylamino][1,2,4]triazolo[1,5-b]pyridazine] | 152 to 154
CC(C)(C)c1cc2ncnn2nc1OCCN1CCC(OC(c2ccccc2)c2ccccc2)CC1 [Example 15A, 7-t-Butyl-6-[2-[4-(Diphenylmethoxy)piperidino]ethoxy][1,2,4]triazolo[1,5-b]pyridazine] | 133 to 135
OC(COc1ccc2ncnn2n1)CN1CCC(OC(c2ccccc2)c2ccccc2)CC1 (stereo not drawn) [Example 16A, 1-[4-(Diphenylmethoxy)piperidino]-3-([1,2,4]triazolo[1,5-b]pyridazin-6-yloxy)-2-propanol] | 133 to 135
O=C(CCN1CCN(C(c2ccccc2)c2ccccc2)CC1)Nc1ccc2ncnn2n1 [Example 19A, 3-[4-(Diphenylmethyl)-1-piperazinyl]-N-([1,2,4]triazolo[1,5-b]pyridazin-6-yl)propionamide] | 176 to 177
Cc1nc2ccc(NCCCN3CCC(OC(c4ccccc4)c4ccccc4)CC3)nn2n1 [Example 20A, 6-[3-[4-(Diphenylmethoxy)piperidino]propylamino]-2-methyl[1,2,4]triazolo[1,5-b]pyridazine] | 119 to 120
Cc1nc2ccc(OCCCN3CCC(OC(c4ccccc4)c4ccccc4)CC3)nn2n1 [Example 21A, 6-[3-[4-(Diphenylmethoxy)piperidino]propoxy]-2-methyl[1,2,4]triazolo[1,5-b]pyridazine] | 134 to 136
O=C(CN1CCC(OC(c2ccccc2)c2ccccc2)CC1)Nc1ccc2ncnn2n1 [Example 23A, 2-[4-(Diphenylmethoxy)piperidino]-N-([1,2,4]triazolo[1,5-b]pyridazin-6-yl)acetamide] | 158 to 160
O=C(CN1CCN(C(c2ccccc2)c2ccccc2)CC1)Nc1ccc2ncnn2n1 [Example 24A, 2-[4-(Diphenylmethyl)-1-piperazinyl]-N-([1,2,4]triazolo[1,5-b]pyridazin-6-yl)acetamide] | 203 to 204
O=C(OCCOc1ccc2ncnn2n1)N1CCC(OC(c2ccccc2)c2ccccc2)CC1 [Example 25A, 6-[2-[4-(Diphenylmethoxy)piperidinocarbonyloxy]ethoxy][1,2,4]triazolo[1,5-b]pyridazine] | 75 to 76
O=C(OCCOc1ccc2ncnn2n1)N1CCN(C(c2ccccc2)c2ccccc2)CC1 [Example 26A, 6-[2-[4-(Diphenylmethyl)-1-piperazinyl-carbonyloxy]ethoxy][1,2,4]triazolo[1,5-b]pyridazine] | 157 to 159
O=C(OCCCOc1ccc2ncnn2n1)C1CC(OC(c2ccccc2)c2ccccc2)CCN1 (stereo not drawn) [Example 27A, 6-[3-[4-(Diphenylmethoxy)piperidino-carbonyloxy]propoxy][1,2,4]triazolo[1,5-b]pyridazine] | 119 to 120
c1ccc(-c2nc3ccc(NCCCN4CCC(OC(c5ccccc5)c5ccccc5)CC4)nn3n2)cc1 [Example 32A, 6-[3-[4-(Diphenylmethoxy)piperidino]propylamino]-2-phenyl[1,2,4]triazolo[1,5-b]pyridazine] | 170 to 172
CC(C)(C(=O)O)c1cn2nc(NCCCN3CCC(OC(c4ccccc4)c4ccccc4)CC3)ccc2n1 [Example 43A, 2-[6-[3-[4-(Diphenylmethoxy)piperidino]propylamino]imidazo[1,2-b]pyridazin-2-yl]-2-methylpropionic Acid] | 205 to 206

Now from value to compound:

melting point [°C] | SMILES
170 to 172 | Cc1cc2ncnn2nc1OCCCCCCN1CCN(C(c2ccccc2)c2ccccc2)CC1 (as salt: hydrochloride) [Example 51A, 6-[6-[4-(Diphenylmethyl)-1-piperazinyl]hexyloxy]-7-methyl[1,2,4]triazolo[1,5-b]pyridazine Dihydrochloride]
143 to 145 | CC(C)c1cc2ncnn2nc1SCCOCCN1CCN(C(c2ccccc2)c2ccccc2)CC1 (as salt: hydrochloride) [Example 59A, 6-[2-[2-[4-(Diphenylmethyl)-1-piperazinyl]ethoxy]ethylthio]-7-isopropyl[1,2,4]triazolo[1,5-b]pyridazine Dihydrochloride]
150 to 152 | CC(C)(C)c1cc2ncnn2nc1OCCOCCN1CCN(C(c2ccccc2)c2ccccc2)CC1 (as salt: hydrochloride) [Example 62A, 7-t-Butyl-6-[2-[2-[4-(Diphenylmethyl)-1-piperazinyl]ethoxy]ethoxy][1,2,4]triazolo[1,5-b]pyridazine Dihydrochloride]
93 to 96 | COC(=O)c1nc2ccc(NCCCN3CCC(OC(c4ccccc4)c4ccccc4)CC3)nn2n1 [Example 36A, Methyl 6-[3-[4-(Diphenylmethoxy)piperidino]propylamino][1,2,4]triazolo[1,5-b]pyridazine-2-carboxylate]
130 to 132 | c1ccc(C(c2ccccc2)N2CCN(CCCCCCNc3ccc4ncnn4n3)CC2)cc1 [Example 37A, 6-[6-[4-(Diphenylmethyl)-1-piperazinyl]hexylamino][1,2,4]triazolo[1,5-b]pyridazine]
133 to 135 | COc1cn2nc(OCCCN3CCC(OC(c4ccccc4)c4ccccc4)CC3)ccc2n1 [Example 41A, 6-[3-[4-(Diphenylmethoxy)piperidino]propoxy]-2-methoxyimidazo[1,2-b]pyridazine]
144 to 146 | COc1cn2nc(OCCCN3CCN(C(c4ccccc4)c4ccccc4)CC3)ccc2n1 [Example 42A, 6-[3-[4-(Diphenylmethyl)-1-piperazinyl]propoxy]-2-methoxyimidazo[1,2-b]pyridazine]
71 to 72 | Cc1cc2ncnn2nc1OCCOCCN1CCN(C(c2ccccc2)c2ccccc2)CC1 [Example 47A, 6-[2-[2-[4-(Diphenylmethyl)-1-piperazinyl]ethoxy]ethoxy]-7-methyl[1,2,4]triazolo[1,5-b]pyridazine]
80 to 82 | Cc1cc2ncnn2nc1OCCOCCN1CCC(OC(c2ccccc2)c2ccccc2)CC1 [Example 53A, 6-[2-[2-[4-(Diphenylmethoxy)piperidino]ethoxy]ethoxy]-7-methyl[1,2,4]triazolo[1,5-b]pyridazine]
106 to 108 | CC(C)(C)c1cc2ncnn2nc1SCCOCCN1CCN(C(c2ccccc2)c2ccccc2)CC1 [Example 60A, 6-[2-[2-[4-(Diphenylmethyl)-1-piperazinyl]ethoxy]ethylthio]-7-t-butyl[1,2,4]triazolo[1,5-b]pyridazine]
119 to 120 | CC(C)c1cc2ncnn2nc1OCCOCCN1CCN(C(c2ccccc2)c2ccccc2)CC1 [Example 61A, 6-[2-[2-[4-(Diphenylmethyl)-1-piperazinyl]ethoxy]ethoxy]-7-isopropyl[1,2,4]triazolo[1,5-b]pyridazine]
172 to 174 | CCOC(=O)CNC(=O)c1cn2nc(NCCCN3CCC(OC(c4ccccc4)c4ccccc4)CC3)ccc2n1 [Example 70A, N-[6-[3-[4-(Diphenylmethoxy)piperidino]propylamino]imidazo[1,2-b]pyridazine-2-carbonyl]glycine Ethyl Ester]
171 | O=C(O)CNC(=O)c1cn2nc(NCCCN3CCC(OC(c4ccccc4)c4ccccc4)CC3)ccc2n1 [Example 72A, N-[6-[3-[4-(Diphenylmethoxy)piperidino]propylamino]imidazo[1,2-b]pyridazine-2-carbonyl]glycine]
105 to 108 | CC(C)(CO)c1cn2nc(NCCCN3CCC(OC(c4ccccc4)c4ccccc4)CC3)ccc2n1 [Example 75A, 2-[6-[3-[4-(Diphenylmethoxy)piperidino]propylamino]imidazo[1,2-b]pyridazin-2-yl)-2-methylpropanol]
194 to 198 | CC(C)(C(=O)O)c1cn2nc(NCCN3CCC(OC(c4ccccc4)c4ccccc4)CC3)ccc2n1 [Example 79A, 2-[6-[2-[4-(Diphenylmethoxy)piperidino]ethylamino]imidazo[1,2-b]pyridazin-2-yl]-2-methylpropionic Acid]
184 to 186 | CC(C)(C(=O)O)c1nc2ccc(NCCCN3CCN(C(c4ccccc4)c4ccccc4)CC3)nn2c1Cl [Example 85A, 2-[3-Chloro-6-[3-[4-(diphenylmethyl)-1-piperazinyl]propylamino]imidazo[1,2-b]pyridazin-2-yl]-2-methylpropionic Acid]
